Common to all, as to assay type: cell-based, human
For one assay, the system named is KYSE270 cells. Put plainly: Cell viability of KYSE270 cells with siRNA-reduced homologous recombination activity. Particulars: KYSE270 cells with expression of RAD51 suppressed by siRNA, compared with control; 5 days of culture. The protocol:
(§1) KYSE270 cells and KYSE30 cells (human esophageal squamous cell carcinoma cell line) were purchased from JCRB Cell Bank, National Institutes of Biomedical Innovation, Health and Nutrition (Osaka, Japan). KYSE270 cells and KYSE30 cells were cultured in a medium in which RPMI1640 and Ham's F12 medium (both of which were manufactured by FUJIFILM Wako Pure Chemical Corporation, Osaka, Japan) were mixed in equal amounts and 5% FBS was added at 37°C in the presence of 5% CO2.
(§2) HeLa cell suspension adjusted to 5000 cells/ml was seeded in a 96 well plate at 100 ul/well, and the next day, siRNA was introduced, followed by addition of Olaparib or Nicaraven. One hundred twenty hours after gene introduction and Olaparib addition, HeLa cells were replaced in a medium to which Presto Blue assay (Thermo-Fisher Scientific, Waltham, MA, USA) had been added so as to have a final concentration of 5%, followed by reaction in the presence of 5% CO2 at 37°C for 1 hour, and then fluorescence was measured under conditions of an excitation wavelength of 520 nm and a fluorescence wavelength of 580 to 640 nm using GloMax (registered trademark) Explorer Multimode Microplate Reader (Promega, Madison, WI, USA).
Fig. 6A. […] After 5 days of culture, cell viability was measured. […]

For the next assay, the system named is KYSE30 cells. Put plainly: Cell viability of KYSE30 cells with siRNA-reduced homologous recombination activity. To be noted: KYSE30 cells with expression of RAD51 suppressed by siRNA, compared with control. The protocol:
as §1, §2
Fig. 7. […]

Assay [1] deals with homologous recombination activity. Put plainly: Assay for site-specific homologous recombination activity (ASHRA). To be noted: HeLa cells, siRNA of control, BRCA1 or RAD51; 48 hours of culture with drug. The protocol:
HeLa cells were seeded on a 3.5 cm dish, and the next day, siRNA was introduced. After 24 hours of culture from the introduction of siRNA, LentiCRISPRv2-ACTB-C1 and pBS-ACTB-200 GFPfr1 (vector for ASHRA measurement) were introduced, and Nicaraven was added at the same time. After further culturing for 48 hours, genomic DNA was purified using Blood Genomic DNA Extraction Mini Kit (Favorgen, Ping-tung, Taiwan). Genome quantitative PCR was performed using Go Taq qPCR master mix (Promega, Madison, WI, USA), measurement was done using CFX96 Touch Real-time PCR detection system (BioRad, Hercules, CA, USA), and knock-in efficiency was calculated by ΔΔCt method. Sequences of a primer for detecting a knock-in allele and a primer for detecting a reference allele are shown below. • For knock-in allyl detection • Forward […] • Reverse […] • For reference allyl detection • Forward […] • Reverse […] • Reference paper: NPL 2.
After 24 hours, a vector for measurement of homologous recombination activity was introduced, and Nicaraven was added. After 48 hours of culture, DNA was collected and homologous recombination activity was measured.
The homologous recombination ability was analyzed by Assay for site-specific homologous recombination activity (ASHRA) (Yoshino et al. Scientific Reports 2019, method shown in Fig. 5).

The test system of assay [2] is γ-H2AX. Put plainly: γ-H2AX intranuclear foci immunostaining after ionizing radiation (DNA repair process). To be noted: drug 30 minutes before 1.5 Gy of X-ray, 24 hours after irradiation. The protocol:
After cell seeding, Nicaraven was added. After 30 minutes, the cells were irradiated with 1.5 Gy of X-ray, and after 2 hours and 24 hours, the cells were fixed and immunostained with an anti-γ-H2AX antibody.
Cells in which five or more γ-H2AX intranuclear foci were observed were counted, and the ratio was calculated and represented in a graph. Respective cells in which less than 5, 5 or more and less than 10, 10 or more and less than 20, and 20 or more γ-H2AX intranuclear foci were observed were counted, and the ratio was calculated and represented in a graph (Fig. 3D).
After IR, more γ-H2AX intranuclear foci are observed in multiple cells in 2 hours. After 24 hours, DNA double strand break is repaired, reducing the number of cells having intranuclear foci and the number of intranuclear foci per cell. Suppression of expression of RAD51 suppressed DNA damage repair. […] It is considered that more DNA damage was formed due to PARP inhibitory action. The measurement of nuclear focus of γ-H2AX 24 hours after X-ray irradiation in this example is a result in a cell having a fast cell cycle.

Another assay relates to HeLa cells. The assay can be described thus: Drug sensitivity test: cell viability (Presto Blue) of HeLa cells with siRNA-reduced homologous recombination activity. To be noted: 96 hours of culture. The method, then:
as §2
After 96 hours of culture, cell viability was measured.
Figs. 1B and 1C show the measurement results of cell viability.

Assay [3] deals with γ-H2AX. The assay can be described thus: Western blot of γ-H2AX after ionizing radiation. Particulars: HeLa cells, drug 30 minutes before 10 Gy of X-ray, collected two hours later. The method, then:
The culture medium for the cells seeded on a 3.5 cm dish was removed, followed by washing with 1x PBS and then direct dissolution in a 1x Sodium dodecyl sulfate (SDS) sample buffer (2% SDS, 1% 2-Mercaptoethanol [2-ME], 50 mM Tris-HCL [pH 6.8], 12% glycerol, 1% Bromophenol blue [BPB]). Thereafter, the solution was subjected to ultrasonic treatment with Vibra cell (Sonics & Materials Inc., CT, USA) and heated at 95°C for 5 minutes to prepare a whole cell extract. For Western blotting, electrophoresis was performed through a 6%, 10% SDS polyacrylamide gel, and […] was done to a PVDF membrane (Millipore Corporation Darmstadt, Germany) for 1.5 h, followed by blocking with 5% skim milk-PBS for 3 to 16 h. After blocking, a primary antibody diluted with a 0.5% BSA/TBS-T or Can get signal solution (TOYOBO, Osaka, Japan) was allowed to react overnight at 4°C. After washing 3 times with PBS-T for 10 minutes, a secondary antibody diluted with 0.5% BSA/TBS-T was allowed to react at room temperature for 1 to 3 hours. […]
The day after HeLa cells were seeded, Nicaraven was added, and 30 minutes later, the cells were irradiated with 10 Gy of X-ray. […] Cell extracts were adjusted and analyzed with Western Blot. […]

Setting [4] is: HeLa cells with expression of BRCA1 and RAD51 suppressed by siRNA, compared with control siRNA.

Take `CC(CNC(=O)c1cccnc1)NC(=O)c1cccnc1` (stereo not shown) [Nicaraven]: the cell viability entry in the assay with KYSE270 cells is on record as “cell viability further decreased”; in the assay on KYSE30 cells, “cell viability decreased”; in the assay on HeLa cells (setting [4]), “cell viability further decreased”; in the assay with HeLa cells (HeLa cells, drug added 24 hours after siRNA), “decreased cell viability in a concentration-dependent manner”. For the same compound, in assay [1], the homologous recombination activity result is given as “did not affect the homologous recombination ability”. Further, the “γ-H2AX intranuclear foci (DNA damage remaining)” value is “DNA damage remained more remarkably” in the assay on γ-H2AX [2] (HeLa cells with expression of RAD51 suppressed, compared with control); “caused DNA damage to remain” in the assay on γ-H2AX [2] (HeLa cells, control and RAD51 siRNA). Besides, in the assay with γ-H2AX [3], the “amount of γ-H2AX” value was “reduced”.

With `O=C(c1cc(Cc2n[nH]c(=O)c3ccccc23)ccc1F)N1CCN(C(=O)C2CC2)CC1` [Olaparib], the cell viability entry in the assay on KYSE270 cells and with HeLa cells (setting [4]) was “decreased cell viability” throughout.
